One assay addresses CRBN/DDB1 (Homo sapiens (Human), UniProt Q96SW2). Put plainly: IC50 measurements for binding to CRBN/DDB1 (HTRF). The settings on record: His tagged CRBN+DDB, Cy5-labeled Thalidomide probe, one hour. A digest of the protocol: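 HTRF competition binding with 2 nM His-tagged CRBN-DDB1 complex, 60 nM Cy5-thalidomide probe and 0.4 nM anti-His Tb cryptate in 50 mM HEPES pH 7.5, 1 mM TCEP, 0.01% Brij-35, 50 mM NaCl, 0.1% BSA. Read after 1 h at room temperature; IC50 from four-parameter dose-response fit.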

For assay [1], the target named is T1, IKZF2 (Homo sapiens (Human), UniProt Q96SW2+Q9UKS7). Put plainly: In vitro IKZF2 FACS Assay in Jurkat cells. The format is cell-based. The settings on record: 24 hrs; for DC50: half maximal degradation concentration; for Dmax: maximal degradation percentage. How it is done: In vitro IKZF2 FACS Assay
DC50, A: <1 nM; B: 1-10 nM; C: 10-100 nM; D: 100-1000 nM; E: >1000 nM. Dmax, A: >80%; B: 60-80%; C: 40-60%; D: 20-40%; E: <20%.

Assay [2] addresses T1, IKZF2. Kind of assay: In vitro IKZF2 HiBit Assay (HEK293T Flp-in-HiBiT cells). The settings on record: HEK293T Flp-in-HiBiT cells, 6 hrs incubation; for DC50: read-out: IKZF2 HiBit DC50; for Dmax: HEK-293T, read-out: IKZF2 HiBit Dmax (%). The format is cell-based. The method, boiled down: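 HEK293T Flp-in cells carrying an endogenous N-terminal HiBiT tag on IKZF2 were exposed to compound for 6 h at 0.1% DMSO. The dilution series was 11 doses at 3-fold, diluted from 1 mM. Nano-Glo HiBiT lytic luminescence, normalized to DMSO, gave DC50 for 50% degradation and Dmax across the concentration range, both reported in letter bins.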

In a further assay the target is IKZF1 (Homo sapiens (Human), UniProt Q13422+Q96SW2). Put plainly: In vitro IKZF1 HiBit Assay (HEK293T Flp-in-HiBiT-IKZF1 stable cell line). The settings on record: HEK293T Flp-in-HiBiT-IKZF1 stable cell line, 6 hrs incubation; for DC50: read-out: IKZF1 HiBit DC50; for Dmax: HEK-293T, read-out: IKZF1 HiBit Dmax (%). The format is cell-based. A digest of the protocol: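 HEK293T Flp-in cells carrying N-terminal HiBiT-tagged IKZF1 were exposed to compound (0.1% DMSO) for 6 h at 3000 cells/well. HiBiT luminescence was read after lytic LgBiT detection. DC50 and Dmax were taken from DMSO-normalized dose-response curves.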

Structures are written as SMILES.

Chain of IKZF1 (Q13422 whole entry): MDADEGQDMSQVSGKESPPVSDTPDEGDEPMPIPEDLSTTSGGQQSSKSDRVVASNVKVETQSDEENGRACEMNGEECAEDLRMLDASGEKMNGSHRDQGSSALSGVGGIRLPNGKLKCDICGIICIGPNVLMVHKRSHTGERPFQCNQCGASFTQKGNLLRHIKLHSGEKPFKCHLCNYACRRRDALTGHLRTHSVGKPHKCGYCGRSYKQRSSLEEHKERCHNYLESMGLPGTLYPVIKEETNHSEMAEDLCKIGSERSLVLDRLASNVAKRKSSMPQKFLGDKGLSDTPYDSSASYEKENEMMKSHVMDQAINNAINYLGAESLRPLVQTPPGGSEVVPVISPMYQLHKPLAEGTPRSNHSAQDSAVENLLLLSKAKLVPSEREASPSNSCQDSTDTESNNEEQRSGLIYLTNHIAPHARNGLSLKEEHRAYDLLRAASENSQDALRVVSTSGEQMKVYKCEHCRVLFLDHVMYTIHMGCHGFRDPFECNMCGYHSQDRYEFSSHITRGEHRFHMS
Chain of IKZF1 (Q96SW2 whole entry): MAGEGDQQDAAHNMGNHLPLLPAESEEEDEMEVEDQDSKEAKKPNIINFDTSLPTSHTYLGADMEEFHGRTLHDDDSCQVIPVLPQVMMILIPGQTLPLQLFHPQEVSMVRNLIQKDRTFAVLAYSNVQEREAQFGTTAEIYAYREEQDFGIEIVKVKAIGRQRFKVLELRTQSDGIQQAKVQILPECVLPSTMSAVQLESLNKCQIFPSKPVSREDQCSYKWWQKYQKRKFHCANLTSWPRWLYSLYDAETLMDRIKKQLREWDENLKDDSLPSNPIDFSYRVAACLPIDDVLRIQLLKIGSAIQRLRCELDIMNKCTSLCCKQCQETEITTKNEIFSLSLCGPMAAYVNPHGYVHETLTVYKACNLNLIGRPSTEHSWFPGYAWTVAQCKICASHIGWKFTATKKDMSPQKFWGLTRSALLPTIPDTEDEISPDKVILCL
Chain of IKZF1 (Q16531 2-1140 partner): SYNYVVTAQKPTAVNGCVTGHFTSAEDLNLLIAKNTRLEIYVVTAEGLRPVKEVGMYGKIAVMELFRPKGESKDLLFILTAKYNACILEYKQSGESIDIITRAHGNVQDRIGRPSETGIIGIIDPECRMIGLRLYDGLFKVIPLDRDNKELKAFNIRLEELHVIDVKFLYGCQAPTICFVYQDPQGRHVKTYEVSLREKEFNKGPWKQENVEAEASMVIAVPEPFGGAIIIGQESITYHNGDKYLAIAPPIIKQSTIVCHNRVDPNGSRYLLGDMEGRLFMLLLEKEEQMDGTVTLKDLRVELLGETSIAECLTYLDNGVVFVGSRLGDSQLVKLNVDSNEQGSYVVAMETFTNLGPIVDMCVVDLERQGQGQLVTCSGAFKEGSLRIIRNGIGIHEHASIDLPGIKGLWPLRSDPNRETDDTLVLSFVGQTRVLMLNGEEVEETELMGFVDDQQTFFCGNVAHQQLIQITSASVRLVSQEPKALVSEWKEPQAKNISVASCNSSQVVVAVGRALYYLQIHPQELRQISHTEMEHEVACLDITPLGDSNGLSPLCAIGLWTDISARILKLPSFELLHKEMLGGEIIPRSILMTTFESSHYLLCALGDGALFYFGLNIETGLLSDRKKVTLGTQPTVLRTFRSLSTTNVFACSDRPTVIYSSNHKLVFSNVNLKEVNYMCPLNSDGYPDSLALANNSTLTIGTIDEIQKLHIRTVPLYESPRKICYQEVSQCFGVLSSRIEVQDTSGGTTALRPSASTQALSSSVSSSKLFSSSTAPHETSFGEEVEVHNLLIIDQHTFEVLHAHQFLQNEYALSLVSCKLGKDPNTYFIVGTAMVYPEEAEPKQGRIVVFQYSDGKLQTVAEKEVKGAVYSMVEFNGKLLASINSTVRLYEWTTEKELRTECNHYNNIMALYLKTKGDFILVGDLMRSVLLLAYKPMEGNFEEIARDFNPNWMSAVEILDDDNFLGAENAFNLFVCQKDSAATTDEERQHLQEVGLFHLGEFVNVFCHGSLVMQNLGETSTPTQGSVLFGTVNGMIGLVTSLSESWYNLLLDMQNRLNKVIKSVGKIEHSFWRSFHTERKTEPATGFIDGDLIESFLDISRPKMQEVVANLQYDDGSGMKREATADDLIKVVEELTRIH
T1 sequence (Q9UKS7 whole entry): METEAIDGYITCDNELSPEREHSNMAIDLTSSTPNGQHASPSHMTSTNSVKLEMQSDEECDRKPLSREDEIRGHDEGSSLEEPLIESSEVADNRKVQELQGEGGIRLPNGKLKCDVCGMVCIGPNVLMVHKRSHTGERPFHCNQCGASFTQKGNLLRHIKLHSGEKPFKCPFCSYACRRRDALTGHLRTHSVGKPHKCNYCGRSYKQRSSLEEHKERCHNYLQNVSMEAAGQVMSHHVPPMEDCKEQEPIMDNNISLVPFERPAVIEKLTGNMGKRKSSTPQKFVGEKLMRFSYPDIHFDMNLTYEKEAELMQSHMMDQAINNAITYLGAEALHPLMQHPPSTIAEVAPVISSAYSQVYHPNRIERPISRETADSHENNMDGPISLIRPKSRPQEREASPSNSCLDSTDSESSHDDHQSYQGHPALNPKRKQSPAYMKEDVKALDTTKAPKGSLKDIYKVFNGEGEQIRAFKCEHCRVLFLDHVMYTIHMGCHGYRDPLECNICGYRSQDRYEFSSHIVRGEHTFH
T1 sequence (Q96SW2 whole entry): as the sequence (Q96SW2 whole entry) above
T1 sequence (Q16531 2-1140 partner): as the sequence (Q16531 2-1140 partner) above
Chain of CRBN/DDB1 (Q96SW2 whole entry, species assumed): as the sequence (Q96SW2 whole entry) above
Chain of CRBN/DDB1 (Q16531 whole entry partner, species assumed): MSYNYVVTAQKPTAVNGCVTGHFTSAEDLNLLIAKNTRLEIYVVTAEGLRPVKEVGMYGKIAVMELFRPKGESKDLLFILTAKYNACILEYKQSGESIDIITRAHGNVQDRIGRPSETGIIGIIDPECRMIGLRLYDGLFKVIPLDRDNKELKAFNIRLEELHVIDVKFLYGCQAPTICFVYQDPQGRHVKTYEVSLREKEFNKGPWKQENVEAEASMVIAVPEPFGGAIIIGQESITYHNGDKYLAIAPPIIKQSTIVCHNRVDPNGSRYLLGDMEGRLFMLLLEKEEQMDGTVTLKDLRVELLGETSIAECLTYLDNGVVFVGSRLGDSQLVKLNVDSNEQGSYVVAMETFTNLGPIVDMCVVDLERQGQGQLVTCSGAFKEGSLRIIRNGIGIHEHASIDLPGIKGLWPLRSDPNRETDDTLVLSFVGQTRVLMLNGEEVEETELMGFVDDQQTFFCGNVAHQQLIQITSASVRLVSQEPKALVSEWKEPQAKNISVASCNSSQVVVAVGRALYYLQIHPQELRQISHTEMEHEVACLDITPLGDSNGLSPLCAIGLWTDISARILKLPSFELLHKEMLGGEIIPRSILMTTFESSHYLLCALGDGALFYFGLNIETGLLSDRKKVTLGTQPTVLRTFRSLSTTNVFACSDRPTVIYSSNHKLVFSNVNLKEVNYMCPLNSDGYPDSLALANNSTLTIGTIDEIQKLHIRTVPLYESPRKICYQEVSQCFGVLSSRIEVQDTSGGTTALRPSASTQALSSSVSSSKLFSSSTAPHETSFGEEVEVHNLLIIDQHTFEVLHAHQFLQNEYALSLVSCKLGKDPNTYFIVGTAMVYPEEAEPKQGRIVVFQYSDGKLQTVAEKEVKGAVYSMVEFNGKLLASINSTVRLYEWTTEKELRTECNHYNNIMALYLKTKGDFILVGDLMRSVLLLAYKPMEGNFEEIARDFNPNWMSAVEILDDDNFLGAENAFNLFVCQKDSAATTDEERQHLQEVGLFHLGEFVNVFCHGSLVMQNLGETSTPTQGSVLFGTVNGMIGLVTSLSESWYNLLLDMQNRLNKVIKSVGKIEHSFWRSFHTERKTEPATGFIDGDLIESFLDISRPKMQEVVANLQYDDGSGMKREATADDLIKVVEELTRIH

On CRBN/DDB1, `O=C1CCC(N2Cc3cc(-c4ccc(CN5CCCC5)c5cncn45)ccc3C2=O)C(=O)N1` (stereo not drawn) [Example 54, 3-(1-oxo-5-(8-(pyrrolidin-1-ylmethyl)imidazo[1,5-a]pyridin-5-yl)isoindolin-2-yl) piperidine-2,6-dione] returned a half-inhibitory concentration (IC50) of 1 to 5 µM. Also, the figures for the DC50 on IKZF2 [1], at IKZF2 [2] and on IKZF1 were below 0.001 µM, 1 to 10 µM and above 10 µM, respectively. The Dmax is above 80% at IKZF2 [1], below 20% on IKZF2 [2] and below 20% at IKZF1.
Molecule `O=C1CCC(N2Cc3cc(-c4cc(CN5CC(F)C5)c5cc[nH]c5n4)ccc3C2=O)C(=O)N1` (stereo not drawn) [Example 117, 3-(5-(4-((3-fluoroazetidin-1-yl)methyl)-1H-pyrrolo[2,3-b]pyridin-6-yl)-1-oxoisoindolin-2-yl) piperidine-2,6-dione] came in with a 50% inhibitory concentration (IC50) at CRBN/DDB1 of 0.1 to 0.5 µM. The figures for the DC50 on IKZF2 [1], at IKZF2 [2] and at IKZF1 were 0.001 to 0.01 µM, 0.001 to 0.01 µM and above 10 µM, respectively. In addition, the Dmax is above 80% on IKZF2 [1], above 80% at IKZF2 [2] and below 20% at IKZF1.
Molecule `Nc1nn(C2CC2)c2c(CN3CCCC3)cc(-c3ccc4c(c3)CN(C3CCC(=O)NC3=O)C4=O)nc12` (stereo not drawn) [Example 210, 3-(5-(3-amino-1-cyclopropyl-7-(pyrrolidin-1-ylmethyl)-1H-pyrazolo[4,3-b]pyridin-5-yl)-1-oxoisoindolin-2-yl) piperidine-2,6-dione] gave a half-inhibitory concentration (IC50) at CRBN/DDB1 of 0.5 to 1 µM. The DC50 lay within 0.001 to 0.01 µM on IKZF2 [1], 0.001 to 0.01 µM at IKZF2 [2] and 0.1 to 1 µM at IKZF1. For the same molecule, the values for the Dmax on IKZF2 [1], on IKZF2 [2] and on IKZF1 were above 80%, above 80% and 40 to 60%, respectively.
On to `O=C1CCC(N2Cc3c(ccc(-c4cc(CN5CCCC5)c5ccn(C6COC6)c5n4)c3F)C2=O)C(=O)N1` (stereo not drawn) [Example 223, 3-(4-fluoro-5-(1-(oxetan-3-yl)-4-(pyrrolidin-1-ylmethyl)-1H-pyrrolo[2,3-b]pyridin-6-yl)-1-oxoisoindolin-2-yl) piperidine-2,6-dione], for which the concentration for half-maximal inhibition (IC50) at CRBN/DDB1 lay within 0.1 to 0.5 µM. Further, the DC50 on IKZF2 [1] is 0.001 to 0.01 µM; on IKZF2 [2] it was below 0.001 µM; on IKZF1, 0.001 to 0.01 µM. For the same molecule, the Dmax was above 80% at IKZF2 [1], 60 to 80% at IKZF2 [2] and 20 to 40% on IKZF1.
Regarding `O=C1CCC(N2Cc3cc(-c4nc5[nH]ccc5c(CN5CCCC5)c4Cl)ccc3C2=O)C(=O)N1` (stereo not drawn) [Example 221, 3-(5-(5-chloro-4-(pyrrolidin-1-ylmethyl)-1H-pyrrolo[2,3-b]pyridin-6-yl)-1-oxoisoindolin-2-yl) piperidine-2,6-dione], the 50% inhibitory concentration (IC50) on CRBN/DDB1 lay within 0.1 to 0.5 µM. For the same molecule, the DC50 at IKZF2 [1] was 0.001 to 0.01 µM; at IKZF2 [2], 0.001 to 0.01 µM; on IKZF1, above 10 µM. Moreover, the Dmax was above 80% at IKZF2 [1], above 80% on IKZF2 [2] and below 20% on IKZF1.
In turn, `Cn1cc2nc(-c3ccc4c(c3)CN(C3CCC(=O)NC3=O)C4=O)cc(CN3CCCC3)c2n1` (stereo not drawn) [Example 314, 3-(5-(2-methyl-7-(pyrrolidin-1-ylmethyl)-2H-pyrazolo[4,3-b]pyridin-5-yl)-1-oxoisoindolin-2-yl) piperidine-2,6-dione] had a half-maximal inhibitory concentration (IC50) on CRBN/DDB1 of 0.1 to 0.5 µM. For the same molecule, the DC50 on IKZF2 [1] was 0.001 to 0.01 µM; at IKZF2 [2] it was 0.001 to 0.01 µM; on IKZF1, 0.01 to 0.1 µM. Also, the Dmax on IKZF2 [1] is above 80%; on IKZF2 [2] it was above 80%; at IKZF1, 20 to 40%.
Molecule `CC(C)Oc1ccnc2c(CN3CCCC3)cc(-c3ccc4c(c3)CN(C3CCC(=O)NC3=O)C4=O)nc12` (stereo not drawn) [Example 232, 3-(5-(8-isopropoxy-4-(pyrrolidin-1-ylmethyl)-1,5-naphthyridin-2-yl)-1-oxoisoindolin-2-yl) piperidine-2,6-dione] yielded a half-inhibitory concentration (IC50) at CRBN/DDB1 of 0.5 to 1 µM. Moreover, the DC50 at IKZF2 [1] is 0.01 to 0.1 µM; at IKZF2 [2], 0.001 to 0.01 µM; on IKZF1, above 10 µM. Also, the Dmax at IKZF2 [1] is 60 to 80%; on IKZF2 [2], 60 to 80%; on IKZF1, below 20%.
Regarding `O=C1CCC(N2Cc3cc(-c4cc(CN5CCC6(CC5)COC6)cc5cncn45)ccc3C2=O)C(=O)N1` (stereo not drawn) [Example 10, 3-(5-(7-((2-oxa-7-azaspiro[3.5]nonan-7-yl)methyl)imidazo[1,5-a]pyridin-5-yl)-1-oxoisoindolin-2-yl) piperidine-2,6-dione], the IC50 on CRBN/DDB1 is 0.5 to 1 µM. The figures for the DC50 on IKZF2 [1], on IKZF2 [2] and at IKZF1 were 0.001 to 0.01 µM, 1 to 10 µM and above 10 µM, respectively. Further, the Dmax on IKZF2 [1] is 40 to 60%; at IKZF2 [2], 40 to 60%; at IKZF1, below 20%.
`CC(C)Nc1n[nH]c2c(CN3CCCC3)cc(-c3ccc4c(c3F)CN(C3CCC(=O)NC3=O)C4=O)nc12` (stereo not drawn) [Example 226, 3-(4-fluoro-5-(3-(isopropylamino)-7-(pyrrolidin-1-ylmethyl)-1H-pyrazolo[4,3-b]pyridin-5-yl)-1-oxoisoindolin-2-yl) piperidine-2,6-dione]: on CRBN/DDB1, the IC50 fell in the range of 0.1 to 0.5 µM. Besides, the results for the DC50 at IKZF2 [1], at IKZF2 [2] and at IKZF1 were 0.001 to 0.01 µM, below 0.001 µM and above 10 µM, respectively. In addition, the results for the Dmax at IKZF2 [1], at IKZF2 [2] and at IKZF1 were above 80%, above 80% and below 20%, respectively.
On CRBN/DDB1, `CN(C)c1ccnc2c(CN3CCCC3)cc(-c3ccc4c(c3)CN(C3CCC(=O)NC3=O)C4=O)nc12` (stereo not drawn) [Example 237, 3-(5-(8-(dimethylamino)-4-(pyrrolidin-1-ylmethyl)-1,5-naphthyridin-2-yl)-1-oxoisoindolin-2-yl) piperidine-2,6-dione] gave a 50% inhibitory concentration (IC50) of 1 to 5 µM. Moreover, the DC50 on IKZF2 [1] is 0.01 to 0.1 µM; at IKZF2 [2], 0.01 to 0.1 µM; at IKZF1, 0.001 to 0.01 µM. The Dmax at IKZF2 [1] lay within 40 to 60%; on IKZF2 [2], 60 to 80%; at IKZF1, 20 to 40%.
`O=C1CCC(N2Cc3cc(-c4nc(CN5CCCC5)c5ccn(C6COC6)c5n4)ccc3C2=O)C(=O)N1` (stereo not drawn) [Example 218, 3-(5-(7-(oxetan-3-yl)-4-(pyrrolidin-1-ylmethyl)-7H-pyrrolo[2,3-d]pyrimidin-2-yl)-1-oxoisoindolin-2-yl) piperidine-2,6-dione] registered an IC50 on CRBN/DDB1 of 0.5 to 1 µM. Further, the DC50 lay within 0.01 to 0.1 µM on IKZF2 [1], 0.001 to 0.01 µM on IKZF2 [2] and 0.1 to 1 µM at IKZF1. The Dmax at IKZF2 [1] is 60 to 80%; at IKZF2 [2], 60 to 80%; at IKZF1, 20 to 40%.
The molecule `O=C1CCC(N2Cc3c(ccc(-c4cc(CN5CCCC5)c5ccn(C6CS(=O)(=O)C6)c5n4)c3Cl)C2=O)C(=O)N1` (stereo not drawn) [Example 230, 3-(4-chloro-5-(1-(1,1-dioxidothietan-3-yl)-4-(pyrrolidin-1-ylmethyl)-1H-pyrrolo[2,3-b]pyridin-6-yl)-1-oxoisoindolin-2-yl) piperidine-2,6-dione] returned a half-inhibitory concentration (IC50) at CRBN/DDB1 of 0.1 to 0.5 µM. Besides, the results for the DC50 on IKZF2 [1], at IKZF2 [2] and on IKZF1 were 0.001 to 0.01 µM, 0.001 to 0.01 µM and above 10 µM, respectively. The Dmax was above 80% at IKZF2 [1], 60 to 80% on IKZF2 [2] and below 20% at IKZF1.
On CRBN/DDB1, `Nc1n[nH]c2c(CN3CC4COCC(C4)C3)cc(-c3ccc4c(c3)CN(C3CCC(=O)NC3=O)C4=O)nc12` (stereo not drawn) [Example 215, 3-(5-(7-((3-oxa-7-azabicyclo[3.3.1]nonan-7-yl)methyl)-3-amino-1H-pyrazolo[4,3-b]pyridin-5-yl)-1-oxoisoindolin-2-yl) piperidine-2,6-dione] came in with a half-inhibitory concentration (IC50) of 0.1 to 0.5 µM. Further, the values for the DC50 on IKZF2 [1], on IKZF2 [2] and at IKZF1 were 0.01 to 0.1 µM, 0.01 to 0.1 µM and 0.1 to 1 µM, respectively. The Dmax at IKZF2 [1] is above 80%; at IKZF2 [2], above 80%; on IKZF1, 20 to 40%.
Regarding `O=C1CCC(N2Cc3cc(-c4cc(CN5CCCC5)c5ccn(C6CCOC6)c5n4)ccc3C2=O)C(=O)N1` (stereo not drawn) [Example 170, 3-(1-oxo-5-(4-(pyrrolidin-1-ylmethyl)-1-(tetrahydrofuran-3-yl)-1H-pyrrolo[2,3-b]pyridin-6-yl)isoindolin-2-yl) piperidine-2,6-dione], the IC50 on CRBN/DDB1 was 0.5 to 1 µM. The DC50 at IKZF2 [1] is 0.01 to 0.1 µM; at IKZF2 [2] it was 0.001 to 0.01 µM; at IKZF1, above 10 µM. The Dmax on IKZF2 [1] was 60 to 80%; on IKZF2 [2], 60 to 80%; at IKZF1, below 20%.
Consider `COC1CCN(Cc2cc(-c3ccc4c(c3)CN(C3CCC(=O)NC3=O)C4=O)nc3c2ccn3C2COC2)CC1` (stereo not drawn) [Example 189, 3-(5-(4-((4-methoxypiperidin-1-yl)methyl)-1-(oxetan-3-yl)-1H-pyrrolo[2,3-b]pyridin-6-yl)-1-oxoisoindolin-2-yl) piperidine-2,6-dione], for which the half-inhibitory concentration (IC50) on CRBN/DDB1 fell in the range of 0.1 to 0.5 µM. Moreover, the values for the DC50 at IKZF2 [1], on IKZF2 [2] and on IKZF1 were 0.001 to 0.01 µM, 0.001 to 0.01 µM and 0.01 to 0.1 µM, respectively. The Dmax on IKZF2 [1] is above 80%; on IKZF2 [2], above 80%; on IKZF1, 20 to 40%.

The values are drawn from patent US20250214991A1 (Oncopia Therapeutics, Inc. d/b/a/ SK Life Science Labs, priority 2022, published 2025).
